From patent US20140243302A1, “BRIDGED BICYCLIC COMPOUNDS FOR THE TREATMENT OF BACTERIAL INFECTIONS” (priority 2011, published 2014)
Values after ≈ are worked out from the molar mass of the structure shown. Structures can show the parent of a compound that is named as a salt.

test system: Staphylococcus aureus Smith; experiment: MIC assay, modified agar dilution (CLSI), S. aureus Smith; format: cell-based; conditions: Staphylococcus aureus, agar dilution, 35° C., 16-20 hr; lowest concentration that completely inhibited growth; read-out: S_aureus_Smith_WT_MIC
Outline: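 Strains were spotted at about 1×10^4 CFU onto compound-containing Mueller Hinton agar (two-fold series, 128-0.001 μg/mL), horse blood 5% added for pneumococcus and enterococcus. MIC read after 16-20 hr at 35 °C, following a modified CLSI agar dilution method.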

| MIC | SMILES |
| --- | --- |
| 0.063 µg/mL (≈ 0.117 µM) | COCCOc1ccc2ncc(F)c(CCC34CCC(NCc5ccc6c(n5)NC(=O)CO6)(CC3)CO4)c2n1 [Example 33, 6-((1-(2-(3-Fluoro-6-(2-methoxyethoxy)-1,5-naphthyridin-4-yl)ethyl)-2-oxabicyclo[2.2.2]octan-4-ylamino)methyl)-2H-pyrido[3,2-b][1,4]oxazin-3(4H)-one] |
| 0.031 µg/mL | Cl.O=C1COc2ccc(CNC34CCC(CCc5c(F)cnc6ccc(OCCO)nc56)(CC3)OC4)nc2N1 [Example 34, 6-((1-(2-(3-Fluoro-6-(2-hydroxyethoxy)-1,5-naphthyridin-4-yl)ethyl)-2-oxabicyclo[2.2.2]octan-4-ylamino)methyl)-2H-pyrido[3,2-b][1,4]oxazin-3(4H)-one Hydrochloride] |
| 0.016 µg/mL | Cl.O=C1COc2ccc(CNC34CCC(CCc5c(F)cnc6ccc(OCCCO)nc56)(CC3)OC4)nc2N1 [Example 35, 6-((1-(2-(3-Fluoro-6-(3-hydroxypropoxy)-1,5-naphthyridin-4-yl)ethyl)-2-oxabicyclo[2.2.2]octan-4-ylamino)methyl)-2H-pyrido[3,2-b][1,4]oxazin-3(4H)-one Hydrochloride] |
| 0.063 µg/mL (≈ 0.111 µM) | O=C1COc2ccc(CNC34CCC(CCc5c(F)cnc6ccc(OCCCCCO)nc56)(CC3)OC4)nc2N1 [Example 37, 6-((1-(2-(3-Fluoro-6-(5-hydroxypentyloxy)-1,5-naphthyridin-4-yl)ethyl)-2-oxabicyclo[2.2.2]octan-4-ylamino)methyl)-2H-pyrido[3,2-b][1,4]oxazin-3(4H)-one] |
| 0.25 µg/mL (≈ 0.466 µM) | NCCCOc1ccc2ncc(F)c(CCC34CCC(NCc5ccc6c(n5)NC(=O)CO6)(CC3)CO4)c2n1 [Example 38, 6-((1-(2-(6-(3-Aminopropoxy)-3-fluoro-1,5-naphthyridin-4-yl)ethyl)-2-oxabicyclo[2.2.2]octan-4-ylamino)methyl)-2H-pyrido[3,2-b][1,4]oxazin-3(4H)-one] |
| 0.25 µg/mL (≈ 0.478 µM) | NCCOc1ccc2ncc(F)c(CCC34CCC(NCc5ccc6c(n5)NC(=O)CO6)(CC3)CO4)c2n1 [Example 40, 6-((1-(2-(6-(2-Aminoethoxy)-3-fluoro-1,5-naphthyridin-4-yl)ethyl)-2-oxabicyclo[2.2.2]octan-4-ylamino)methyl)-2H-pyrido[3,2-b][1,4]oxazin-3(4H)-one] |
| 0.5 µg/mL (≈ 0.885 µM) | NCCCCCOc1ccc2ncc(F)c(CCC34CCC(NCc5ccc6c(n5)NC(=O)CO6)(CC3)CO4)c2n1 [Example 41, 6-((1-(2-(6-(5-Aminopentyloxy)-3-fluoro-1,5-naphthyridin-4-yl)ethyl)-2-oxabicyclo[2.2.2]octan-4-ylamino)methyl)-2H-pyrido[3,2-b][1,4]oxazin-3(4H)-one] |
| 0.063 µg/mL (≈ 0.112 µM) | O=C1COc2ccc(CNC34CCC(CCc5c(F)cnc6ccc(OCC7(CO)CC7)nc56)(CC3)OC4)nc2N1 [Example 42, 6-((1-(2-(3-Fluoro-6-((1-(hydroxymethyl)cyclopropyl)methoxy)-1,5-naphthyridin-4-yl)ethyl)-2-oxabicyclo[2.2.2]octan-4-ylamino)methyl)-2H-pyrido[3,2-b][1,4]oxazin-3(4H)-one] |
| 1 µg/mL (≈ 1.78 µM) | NCC1(COc2ccc3ncc(F)c(CCC45CCC(NCc6ccc7c(n6)NC(=O)CO7)(CC4)CO5)c3n2)CC1 [Example 43, 6-((1-(2-(6-((1-(Aminomethyl)cyclopropyl)methoxy)-3-fluoro-1,5-naphthyridin-4-yl)ethyl)-2-oxabicyclo[2.2.2]octan-4-ylamino)methyl)-2H-pyrido[3,2-b][1,4]oxazin-3(4H)-one] |
| 2 µg/mL | COc1ccc2ncc(C#N)c(CCC34CCC(NCc5cc6ccccc6n(C)c5=O)(CC3)CO4)c2n1.Cl [Example 46, 6-Methoxy-4-(2-(4-((1-methyl-2-oxo-1,2-dihydroquinolin-3-yl)methylamino)-2-oxabicyclo[2.2.2]octan-1-yl)ethyl)-1,5-naphthyridine-3-carbonitrile Hydrochloride] |
| 2 µg/mL (≈ 3.83 µM) | CON=C1COc2ccc(CNC34CCC(CCc5c(F)cnc6ccc(OC)nc56)(CC3)OC4)nc2N1 [Example 47, 6-((1-(2-(3-Fluoro-6-methoxy-1,5-naphthyridin-4-yl)ethyl)-2-oxabicyclo[2.2.2]octan-4-ylamino)methyl)-2H-pyrido[3,2-b][1,4]oxazin-3(4H)-one O-Methyl Oxime] |
| 2 µg/mL (≈ 3.93 µM) | COc1ccc2ncc(F)c(CCC34CCC(NCc5ccc6c(n5)NC(=NO)CO6)(CC3)CO4)c2n1 [Example 48, 6-((1-(2-(3-Fluoro-6-methoxy-1,5-naphthyridin-4-yl)ethyl)-2-oxabicyclo[2.2.2]octan-4-ylamino)methyl)-2H-pyrido[3,2-b][1,4]oxazin-3(4H)-one Oxime] |
| 1 µg/mL (≈ 1.98 µM) | COc1ccc2c(n1)c(CCC13CCC(NCc4ccc5c(n4)NC(=O)CO5)(CC1)CO3)cc(=O)n2C [Example 49, 6-(((1-(2-(6-Methoxy-1-methyl-2-oxo-1,2-dihydro-1,5-naphthyridin-4-yl)ethyl)-2-oxabicyclo[2.2.2]octan-4-yl)amino)methyl)-2H-pyrido[3,2-b][1,4]oxazin-3(4H)-one] |
| 0.031 µg/mL (≈ 0.0611 µM) | COc1ccc2ncc(Cl)c(CCC34CCC(NCc5ccc6c(c5)NC(=O)CO6)(CC3)CC4)c2n1 [Example 56, 6-((4-(2-(3-Chloro-6-methoxy-1,5-naphthyridin-4-yl)ethyl)bicyclo[2.2.2]octan-1-ylamino)methyl)-2H-benzo[b][1,4]oxazin-3(4H)-one] |
| 4 µg/mL (≈ 7.74 µM) | COc1ccc2nc(CNC34CCC(CCc5c(Cl)cnc6ccc(OC)nc56)(CC3)CC4)ccc2c1 [Example 57, 4-(2-(3-Chloro-6-methoxy-1,5-naphthyridin-4-yl)ethyl)-N-((6-methoxyquinolin-2-yl)methyl)bicyclo[2.2.2]octan-1-amine] |
| 0.125 µg/mL (≈ 0.256 µM) | COc1ccc2ncc(Cl)c(CCC34CCC(NCc5ccc6cccnc6n5)(CC3)CC4)c2n1 [Example 58, N-((1,8-Naphthyridin-2-yl)methyl)-4-(2-(3-chloro-6-methoxy-1,5-naphthyridin-4-yl)ethyl)bicyclo[2.2.2]octan-1-amine] |
| 0.016 µg/mL (≈ 0.0353 µM) | COc1ccc2ncc(F)c(CCC34CCC(NCc5ccc(C)c(F)c5)(CC3)CO4)c2n1 [Example 59, N-(3-Fluoro-4-methylbenzyl)-1-(2-(3-fluoro-6-methoxy-1,5-naphthyridin-4-yl)ethyl)-2-oxabicyclo[2.2.2]octan-4-amine] |
| 8 µg/mL (≈ 17.9 µM) | COc1ccc2ncc(F)c(CCC34CCC(NCc5cccc(C#N)n5)(CC3)CO4)c2n1 [Example 60, 6-(((1-(2-(3-Fluoro-6-methoxy-1,5-naphthyridin-4-yl)ethyl)-2-oxabicyclo[2.2.2]octan-4-yl)amino)methyl)picolinonitrile] |
| 0.063 µg/mL (≈ 0.131 µM) | COc1ccc2ncc(F)c(CCC34CCC(NCc5cc6c(cn5)OCCO6)(CC3)CO4)c2n1 [Example 61, N-((2,3-Dihydro-[1,4]dioxino[2,3-c]pyridin-7-yl)methyl)-1-(2-(3-fluoro-6-methoxy-1,5-naphthyridin-4-yl)ethyl)-2-oxabicyclo[2.2.2]octan-4-amine] |
| 4 µg/mL (≈ 8.29 µM) | COc1ccc2ncc(F)c(CCC34CCC(NCc5cc(OC)c(OC)cn5)(CC3)CO4)c2n1 [Example 62, N-((4,5-Dimethoxypyridin-2-yl)methyl)-1-(2-(3-fluoro-6-methoxy-1,5-naphthyridin-4-yl)ethyl)-2-oxabicyclo[2.2.2]octan-4-amine] |
| 0.25 µg/mL (≈ 0.509 µM) | COc1ccc2ncc(F)c(CCC34CCC(NCc5ccc(N6CCCC6)cn5)(CC3)CO4)c2n1 [Example 63, 1-(2-(3-Fluoro-6-methoxy-1,5-naphthyridin-4-yl)ethyl)-N-((5-(pyrrolidin-1-yl)pyridin-2-yl)methyl)-2-oxabicyclo[2.2.2]octan-4-amine] |
| 4 µg/mL (≈ 7.88 µM) | COc1ccc2ncc(F)c(CCC34CCC(NCc5ccc(N6CCOCC6)nc5)(CC3)CO4)c2n1 [Example 64, 1-(2-(3-Fluoro-6-methoxy-1,5-naphthyridin-4-yl)ethyl)-N-((6-morpholinopyridin-3-yl)methyl)-2-oxabicyclo[2.2.2]octan-4-amine] |
| 2 µg/mL (≈ 3.93 µM) | COc1ccc2ncc(F)c(CCC34CCC(NCc5cnc(N6CCOCC6)nc5)(CC3)CO4)c2n1 [Example 65, 1-(2-(3-Fluoro-6-methoxy-1,5-naphthyridin-4-yl)ethyl)-N-((2-morpholinopyrimidin-5-yl)methyl)-2-oxabicyclo[2.2.2]octan-4-amine] |

| SMILES | MIC |
| --- | --- |
| O=C1COc2ccc(CNC34CCC(CCc5c(F)cnc6ccc(OCCCCO)nc56)(CC3)OC4)nc2N1 [Example 36, 6-((1-(2-(3-Fluoro-6-(4-hydroxybutoxy)-1,5-naphthyridin-4-yl)ethyl)-2-oxabicyclo[2.2.2]octan-4-ylamino)methyl)-2H-pyrido[3,2-b][1,4]oxazin-3(4H)-one] | 0.031 µg/mL (≈ 0.0562 µM) |
| NCCCCOc1ccc2ncc(F)c(CCC34CCC(NCc5ccc6c(n5)NC(=O)CO6)(CC3)CO4)c2n1 [Example 39, 6-((1-(2-(6-(4-Aminobutoxy)-3-fluoro-1,5-naphthyridin-4-yl)ethyl)-2-oxabicyclo[2.2.2]octan-4-ylamino)methyl)-2H-pyrido[3,2-b][1,4]oxazin-3(4H)-one] | 0.5 µg/mL (≈ 0.908 µM) |
| COc1ccc2ncc(C#N)c(CCC34CCC(NCc5ccc6c(n5)NC(=O)CO6)(CC3)CO4)c2n1 [Example 44, 6-Methoxy-4-(2-(4-((3-oxo-3,4-dihydro-2H-pyrido[3,2-b][1,4]oxazin-6-yl)methylamino)-2-oxabicyclo[2.2.2]octan-1-yl)ethyl)-1,5-naphthyridine-3-carbonitrile] | 0.016 µg/mL (≈ 0.032 µM) |
| COc1ccc2ncc(C#N)c(CCC34CCC(NCc5cc6c(cn5)OCCO6)(CC3)CO4)c2n1 [Example 45, 4-(2-(4-((2,3-Dihydro-[1,4]dioxino[2,3-c]pyridin-7-yl)methylamino)-2-oxabicyclo[2.2.2]octan-1-yl)ethyl)-6-methoxy-1,5-naphthyridine-3-carbonitrile Hydrochloride] | 0.031 µg/mL |
| COc1ccc2ncc(OC)c(CCC34CCC(NCc5ccc6c(n5)NC(=O)CO6)(CC3)CO4)c2n1 [Example 50, 6-[({1-[2-(3,6-Dimethoxy-1,5-naphthyridin-4-yl)ethyl]-2-oxabicyclo[2.2.2]oct-4-yl}amino)methyl]-2H-pyrido[3,2-b][1,4]oxazin-3(4H)-one] | 0.125 µg/mL (≈ 0.247 µM) |
